Reference: publication PMC4630399, “Charge-Based Inhibitors of Amylin Fibrillization and Toxicity” (Journal of Diabetes Research, 2015)
Entries after “also recorded” stand apart in the source; their conditions may differ. Where two headings read alike, the source gives them in different places. Positions of bridges follow the written chain, without caps; N, C: chain ends. Residues, ends and D or L forms follow the SMILES beside them. No end group written: not given here.

How the values were obtained:
[1] = tested on: MIN6 models of pancreatic β-cells; settings: neutral pH, cited from earlier work
Source text: (§1) In type 2 diabetes, the positively charged 37-residue hormone amylin misfolds into cationic fibrils which have been implicated in the destruction of the pancreatic β-cells that make insulin and amylin, thus contributing to pathology. Amylin is a particularly favorable system for investigating the roles of charges in fibrillization, since the core of the intermolecular β-sheet fibril structure has only one pH-titratable group, His18 [9]. The histidine acts as an electrostatic switch, inhibiting fibrillization in its charged state at acidic pH and favoring fibrillization in its uncharged ... || The motivation for the studies described in this work was to see if electrostatic charge repulsion could be exploited to design new types of inhibitors of amylin fibrillization and cytotoxicity. […] Moreover, addition of a single charged lysine residue ...

WT-amylin fibrillization = settings: cited from earlier work
Source text: as §1, with “|| An IC50 analysis of the inhibition data was performed to obtain quantitative information (Figure 5).” for “||”, “Arg-1 concentration-dependence” for “motivation”, “inhibition of WT-amylin fibril elongation rates gives an IC50 value of 0.6 ± 0.5 μM. For Arg-2 and Mem-T, the IC50 values are ~10 μM (Figure 5(a)). In addition” for “studies described in this work was”, “effecting elongation rates, Arg-2 increases the lag times for WT-amylin fibrillization with an IC50” for “see if electrostatic charge repulsion could be exploited to design new types”, “~0.1 μM.” for “inhibitors of amylin fibrillization and cytotoxicity.”

[2] = design: method as in 2 sources, ref 21 = [21]; PMID 23016872; doi:10.1021/bi300574r; 21 Marek P. J. Patsalo V. Green D. F. Raleigh D. P. Ionic strength effects on amyloid formation by amylin are a complicated interplay among debye screening, ion selectivity, and hofmeister effects Bio ||| ref 7 = [7]; PMID 22206987; doi:10.1016/j.jmb.2011.12.032; 7 Cao P. Tu L.-H. Abedini A. Sensitivity of amyloid formation by human islet amyloid polypeptide to mutations at residue 20 Journal of Molecular Biology 2012 421 2-3 282 295 10.1016/j.jmb.2011.12.032; settings: compared to WT-amylin; cited from earlier work
Source text: In type 2 diabetes, the positively charged 37-residue hormone amylin misfolds into cationic fibrils which have been implicated in the destruction of the pancreatic β-cells that make insulin and amylin, thus contributing to pathology. Amylin is a particularly favorable system for investigating the roles of charges in fibrillization, since the core of the intermolecular β-sheet fibril structure has only one pH-titratable group, His18 [9].

[3] = tested on: MIN6 mouse model of pancreatic β-cells; settings: melittin compared with 160 μM WT-amylin
Description: (§2) The stock solutions were diluted with FBS-free DMEM and sonicated continuously for 5 min at 75% amplitude before use. FBS was subsequently added to a concentration of 15% (v/v), giving final amylin concentrations of 40, 80, and 160 μM. The final DMSO concentration for all cytotoxicity experiments was 1% (v/v).
(§3) Cytotoxicity was measured using the mouse insulinoma 6 (MIN6) cell line model of β-pancreatic cells, which were a gift from Dr. Anil Rustgi (University of Pennsylvania). Cells were seeded at a density of 20,000 per 100 μL in black clear-bottom 96-well plates. The cells were grown in DMEM with 15% FBS, 25 mM glucose, 2 mM L-glutamine, […] sodium pyruvate, 55 μM β-mercaptoethanol, 1000 units/mL penicillin, and 100 μg/mL streptomycin, for 20 h at 37°C in a humidified incubator with 5% CO2. […] The cells were incubated for another 24 h followed by the addition of 10% (v/v) of the redox indicator dye Alamar Blue at the concentration supplied by the manufacturer (Invitrogen). Fluorescence, due to the reduction of Alamar Blue by viable cells, was measured after 6 h, using excitation and emission wavelengths of 544 and 590 nm, respectively. Cell viability was calculated from the ratio of Alamar Blue fluorescence in treated to untreated cells. Uncertainties were calculated as the SEMs of triplicate measurements.

WT-amylin [4] = biological target: T1, WT-amylin (Homo sapiens, UniProt P10997); experiment: TEM of WT-amylin fibrils formed in presence of inhibitor peptides; assay type: biochemical; design: purchased Biopeptide (San Diego, CA); host or cells: solid-phase synthesis; settings: 80 μM WT-amylin with 160 μM analog, 20 mM sodium phosphate pH 7.4, 1% DMSO, 37°C, 24 h
T1 sequence (P10997 34-70 limits assumed): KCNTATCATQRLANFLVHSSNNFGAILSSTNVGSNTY
Description: (§4) Samples containing 80 μM concentrations of WT-amylin and the three analogs were incubated without agitation at a temperature of 37°C in 20 mM phosphate buffer (pH 7.4). For the inhibition reactions, samples contained WT-amylin at an 80 μM concentration, together with 160 μM of Arg-1, Arg-2, or Mem-T analogs. Aliquots from the reactions were removed after 2 days for TEM imaging. The aliquots were blotted onto carbon-coated 400-mesh Maxtaform copper grids (Ted Pella Inc. Redding, CA) for 1–3 min, followed by negative staining with 1% uranyl acetate. TEM images were recorded on an FEI Tecnai G^2 Spirit BioTwin transmission electron microscope equipped with an AMT XR-40 camera.
Figure 8 TEM images of fibrils formed from 80 μM WT amylin in the presence or absence of inhibitor peptides. (a) WT amylin alone, (b) with 160 μM Arg-1, (c) with 160 μM Arg-2, and (d) with 160 μM Mem-T. Aliquots were removed for TEM imaging 24 h after the fibrillization reactions were started. Reactions were carried out in 20 mM sodium phosphate (pH 7.4), 1% DMSO (v/v), at 37°C.

[5] = ThT assay of fibrillization kinetics, peptides alone; assay type: physicochemical
Description: (§5) The time course of fibrillization in solution was monitored using 100–200 μL amylin samples, contained in white polystyrene clear bottom 96-well plates (Corning Inc., Corning, NY). Plates were covered with a clear polyester sealing tape (Fisher Scientific, Agawam, MA) to prevent evaporation. Stock solutions of 1.1 mM WT-amylin and inhibitor peptides were prepared in 100% DMSO, which dissolves and disaggregates amylin fibrils, and were stored at −80°C when not in use. Starting from the 1.1 mM stock solutions in 100% DMSO, samples for fibrillization reactions were prepared to contain 20 μM amylin and 10 μM ultrapure ThT, in 20 mM sodium phosphate buffer, pH 7.4, and a final DMSO concentration of 2% (v/v). For experiments using larger 400 μM concentrations of Arg-2 and Mem-T, the solutions were prepared by diluting 100% DMSO stock solutions of 20 mM peptide to a final DMSO concentration of 2% (v/v). Amylin was the last component added to the samples for the kinetic reactions, in order to reduce the dead time for the experiments. The plates were incubated at 25°C without agitation. Fluorescence intensity was recorded at 2 min intervals with excitation at 440 nm and emission at 490 nm on a Fluoroskan Ascent 2.5 fluorescence plate reader. Fibrillization reactions for the peptides alone were performed in triplicate and for analog-peptide inhibition of WT-amylin in duplicate, to estimate experimental uncertainties in kinetic parameters.

[6] = tested on: WT-amylin cytotoxicity towards MIN6 mouse model of pancreatic β-cells; experiment: Protection of MIN6 cells against WT-amylin cytotoxicity (Alamar Blue); settings: MIN6 cells, 80 μM WT-amylin, up to 2 : 1 inhibitor : WT-amylin
Description: as §2, §3

WT-amylin [7] = biological target: T1, WT-amylin; experiment: ThT assay, inhibition of WT-amylin fibrillization by analogs added in trans; assay type: biochemical; design: purchased Biopeptide (San Diego, CA); host or cells: solid-phase synthesis; settings: 20 μM WT-amylin
Description: as §5, with “Starting from the 1.1 mM stock solutions in 100% DMSO, samples for fibrillization reactions were prepared to contain 20 μM amylin and 10 μM ultrapure ThT, in 20 mM sodium phosphate buffer, pH 7.4, and a final DMSO concentration of 2% (v/v).” left out

[8] = TEM of aggregates formed by peptides alone; assay type: physicochemical; settings: 80 μM peptide, 2 days, 20 mM phosphate pH 7.4, 37°C, no agitation
Description: as §4

[9] = 400 μM peptide, 150 mM NaCl, pH 7.4, 2% DMSO, 25°C, ThT, triplicate

**Q.** What does the source list for “H18R: H18R mutant of amylin (KCNTATCATQRLANFLVRSSNNFGAILSSTNVGSNTY; not fully specified (C-terminus); ends and bridges not checked; UniProt P10997 34-70, looked up, variant H18R)”?
**A.** cytotoxicity to β-cells [1]: not cytotoxic to β-cells; cytotoxicity to β-cells ([1]; listed as Substitution of a positively charged arginine at position 18): lowers cytotoxicity to MIN6 models of pancreatic β-cells compared to WT-amylin

**Q.** Which “effect on WT-amylin fibrillization” value (WT-amylin fibrillization) does the source give for heparin here?
**A.** The value was “enhance fibrillization of WT-amylin”.

**Q.** For “S20K: amylin with the S20K mutation (KCNTATCATQRLANFLVHSKNNFGAILSSTNVGSNTY; not fully specified (C-terminus); ends and bridges not checked; UniProt P10997 34-70, looked up, variant S20K)”, which “fibrillization of mutant amylin” value [2] is on record?
**A.** Its value is “much slower fibrillization; also recorded: fibrillizes much more slowly”.

**Q.** And the “inhibition of WT-amylin fibrillization” value (WT-amylin fibrillization; added in trans)?
**A.** The value was “inhibit fibrillization of the WT-amylin peptide; also recorded: inhibits fibrillization of WT-amylin when added in trans”.

**Q.** With melittin as the compound, how does the “viability of MIN6 cells, positive control” value [3] read?
**A.** Its value is “comparable to the value obtained with the potent toxin melittin”.

**Q.** With CC[C@H](C)[C@H](NC(=O)[C@H](C)NC(=O)CNC(=O)[C@H](Cc1ccccc1)NC(=O)[C@H](CC(N)=O)NC(=O)[C@H](CC(N)=O)NC(=O)[C@H](CO)NC(=O)[C@H](CO)NC(=O)[C@H](Cc1c[nH]cn1)NC(=O)[C@H](CC(=O)O)NC(=O)[C@H](CC(=O)O)NC(=O)[C@H](CC(=O)O)NC(=O)[C@H](CC(N)=O)NC(=O)[C@H](C)NC(=O)[C@H](CC(=O)O)NC(=O)[C@H](CCCNC(=N)N)NC(=O)[C@H](CC(=O)O)NC(=O)[C@@H](NC(=O)[C@H](C)NC(=O)[C@@H]1CSSC[C@H](NC(=O)[C@@H](N)CCCCN)C(=O)N[C@@H](CC(N)=O)C(=O)N[C@@H]([C@@H](C)O)C(=O)N[C@@H](C)C(=O)N[C@@H]([C@@H](C)O)C(=O)N1)[C@@H](C)O)C(=O)N[C@@H](CC(C)C)C(=O)N[C@@H](CO)C(=O)N[C@@H](CO)C(=O)N[C@H](C(=O)N[C@@H](CC(N)=O)C(=O)N[C@H](C(=O)NCC(=O)N[C@@H](CO)C(=O)N[C@@H](CC(N)=O)C(=O)N[C@H](C(=O)N[C@@H](Cc1ccc(O)cc1)C(N)=O)[C@@H](C)O)C(C)C)[C@@H](C)O [Mem-T] (H-KCNTATCATDRDANDDDHSSNNFGAILSSTNVGSNTY-NH2; disulfide 2-7 (inferred); N-terminus assumed) as the compound, how does the “TEM of WT-amylin fibrils formed with inhibitor” value (WT-amylin [4]) read?
**A.** Its value is “indistinguishable from those formed with WT-amylin alone”.

**Q.** What about the “fibrillization detected (ThT)” value ([5]; 20 μM peptide, 150 mM NaCl, pH 7.4, 25°C) of the same compound?
**A.** Its value is “failed to fibrillize”.

**Q.** What about the fibril elongation rate [5, 9] of the same compound?
**A.** Its fibril elongation rate is 6.1 ± 1.4 × 10^−6 min^−1.

**Q.** What about the fibrillization lag time [5, 9] of the same compound?
**A.** The fibrillization lag time was 10,000 min.

**Q.** What about the “fibrillization detected (ThT)” value ([5]; 400 μM peptide, absence of salt) of the same compound?
**A.** Its value is “only a very weak signal for fibrils was detected”.

**Q.** What about the “fibrillization detected (ThT)” value ([5]; 400 μM peptide, pH 7.4, 2% DMSO, 25°C) of the same compound?
**A.** The value was “weak fibrillization”.

**Q.** What about the “fibrillization detected (ThT)” value ([5]; 400 μM peptide, physiological salt concentrations and above) of the same compound?
**A.** The value was “Fibrillization was stimulated”.

**Q.** And the “protection against WT-amylin cytotoxicity (overall)” value [6]?
**A.** Its value is “failed to protect against WT-amylin cytotoxicity”.

**Q.** And the “reduction in elongation rates relative to arginine-peptides” value (WT-amylin [7])?
**A.** Its value is “only about half of that for the arginine-peptides”.

**Q.** What about the “effect on WT-amylin fibrillization lag time” value (WT-amylin [7]; 150 mM NaCl) of the same compound?
**A.** Its value is “decrease at high concentrations; also recorded: causes a reduction in lag times at high concentrations of the analog (>10 μM); also recorded: decreases the lag times”.

**Q.** What about the “reduction of WT-amylin fibril elongation rate” value (WT-amylin [7]; 150 mM NaCl, analog 0.001 to 120 μM) of the same compound?
**A.** The value was 4 fold.

**Q.** What about the “salt dependence of inhibition of elongation rate” value (WT-amylin [7]; varying NaCl) of the same compound?
**A.** The value was “salt effects on elongation rates are reduced close to the uncertainties of the measurements”.

**Q.** What about the “salt dependence of lag time shortening” value (WT-amylin [7]; varying NaCl) of the same compound?
**A.** The value was “shows a strong salt concentration dependence”.

**Q.** And the “aggregate morphology by TEM” value [8]?
**A.** Its value is “only detected amorphous aggregates with nonfibrillar morphologies; also recorded: few if any fibrils”.
